In PubChem BioAssay AID2305 (GlaxoSmithKline (GSK), 2010) one finds IC50 data, which are given here for 85 molecules.

Several values for one entry are separate records, joined by “and”; a condition that tells them apart may be missing. Equal entries are not always repeated.

The assay concerns P. falciparum 3D7 growth, pLDH absorbance. The experiment in a line: P. falciparum 3D7 growth inhibition, dose response, strain 3D7 (AID 2305).

As to `Cc1cc(NCCCCCCCCNc2cc(C)nc3ccccc23)c2ccccc2n1`, the IC50 – broadly, the point on the concentration scale where inhibition reaches its midpoint – is 990 nM. Next, `CC(=O)Nc1ccc(C(=O)NC2CCN(c3ccnc4cc(Cl)ccc34)CC2)cc1`: 360 nM.

Consider `CN(C)S(=O)(=O)n1ncc2c3c(N)nc(N)nc3ccc21`, for which the IC50 was determined as 180 nM.

`Cc1cc(NC(=O)Nc2ccc(Oc3ccccc3)cc2)c2ccccc2n1` showed an IC50 of 840 nM.

Molecule `CC(=O)c1ccc(-c2cccc3c(CC(=O)Nc4ccc5nccc(N6CCN(C)CC6)c5c4)cccc23)cc1` came in with a concentration for half-maximal inhibition (IC50) of 500 nM.

`CCCCCNc1ccnc2cc(Cl)ccc12`: the IC50 was determined as 510 nM. With `CC1CC1C(=O)NC1CCN(CC2(c3ccccc3)CCCCC2)CC1` (stereo not given), the IC50 is 640 nM. For `CNC(=S)NCc1cnc2ccccn12`, the IC50 turned out to be 200 nM.

On to `CN1CCCN(c2ccnc3cc4c(cc23)N(C(=O)c2ccc(Cl)c(Cl)c2)CC4)CC1`, for which the IC50 was determined as 870 nM. The molecule `COc1ccc(-c2ccc(NC(=O)c3ccccc3)cc2)cc1CN1CCCN(C)CC1` returned an IC50 of 910 nM. In turn, `Cc1ccc(O)cc1Nc1ccnc2cc(-c3ccccn3)ccc12` showed an IC50 of 760 nM.

`Nc1nc(N)c2c(ccc3c2ccn3C2CCCCC2)n1` registered an IC50 of 120 nM. To `N#Cc1ccc2c(c1)CCN(CCC1CCC(NC(=O)/C=C/c3cnc4ccccc4c3)CC1)CC2` (stereo not given) belongs 1210 nM; to `Cc1[nH]c(C)c(-c2ccc(CCc3cccc(C(F)(F)F)c3)nc2)c(=O)c1Cl`, 100 nM; to `COc1ccc2nccc([C@@H](O)CN3CCC(NCCOc4c(C)cccc4F)CC3)c2c1`, 350 nM. `NC1CCN(c2nc(NCCCc3ccc(O)cc3)nc(NCc3ccccc3-c3ccccc3)n2)CC1` yielded an IC50 of 680 nM.

In turn, `Cc1nnsc1C(=O)Nc1cccc(-c2ccc(-c3nc4ccccc4[nH]3)s2)c1` displayed a half-inhibitory concentration (IC50) of 880 nM. Molecule `CCCC(CC)n1ccc2c3c(N)nc(N)nc3ccc21` (stereo not given) yielded an IC50 of 10 nM. To `O=C(C=Cc1ccc(Br)cc1)N1CCC(CCN2CCC(c3c[nH]c4ccccc34)CC2)CC1` belongs 920 nM. Next, `Cn1cncc1C(=O)Nc1ccc(-c2cccc(-c3nc4ccc(C(F)(F)F)cc4[nH]3)c2)cc1`: 860 nM. The molecule `CS(=O)(=O)c1ccc(CCNCc2ccc(-c3ccc(CN(C(=O)C4CCCC4)C4CCN(Cc5ccccc5)CC4)cc3)nc2)cc1` registered an IC50 of 830 nM. Next, `COc1ccc2nccc([C@@H](O)CN3CCC(NCc4cc5c(cc4F)SCC(=O)N5)CC3)c2n1`: 1000 nM.

As for `c1cc2nc(CCCCc3nc4ccc(C5=N[C@H]6CCCC[C@H]6N5)cc4[nH]3)[nH]c2cc1C1=N[C@H]2CCCC[C@H]2N1`, the IC50 turned out to be 410 nM. In turn, `CCCCn1c(SC(C)C)nc2c(c1=O)C1(CCCCC1)Cc1ccccc1-2` registered a half-inhibitory concentration (IC50) of 670 nM.

`COc1cc2nc(NCCc3ccccc3)nc(NCCCc3ccccc3)c2cc1OC` registered an IC50 of 160 nM. In the case of `CCOC(=O)CN(c1ccc(Br)cc1OCCOc1cc(Br)ccc1N(CC(=O)OCC)C(C)C(=O)OCC)C(C)C(=O)OCC` (stereo not given), the IC50 came out at 810 nM. Next, `CC(C)Nc1cc(C(=O)N[C@@H](Cc2ccccc2)[C@H](O)CNC2CCOCC2)c(F)c(N2CCCCS2(=O)=O)c1`: 180 nM.

The molecule `Cc1sc(CNCCCNc2cc(=O)c3ccccc3[nH]2)cc1Br` came in with an IC50 of 760 nM. With `O=C(/C=C/c1ccc(Cl)c(Cl)c1)NCCCN1CCC(c2c[nH]c3ccccc23)CC1`, the IC50 worked out at 970 nM. Consider `O=C(c1cc(-c2cccs2)[nH]n1)N1CCN(S(=O)(=O)c2ccc(Cl)cc2)CC1`, for which the IC50 came to 290 nM. Next, `CCOc1ccc(C(=O)Nc2cc3c(c(C(F)(F)F)c2)CCNC3)cc1Cl`: 1060 nM. Next, `Cc1ccc(CC(C)NCC(O)c2cccc(Cl)c2)cc1F` (stereo not given): 740 nM. Next, `COc1cccc(-c2cc(C(=O)Nc3cc(Oc4ccc(O)cc4)cc([N+](=O)[O-])c3)on2)c1`: 1050 nM; `CSc1nnc2n(Cc3ccccc3)c(=O)c3c(n12)-c1ccccc1CC31CCCCC1`: 970 nM; `O=C(Nc1cccc(C(F)(F)F)c1)c1cccc(S(=O)(=O)NCC2CCCN(CC3CCCCC3)C2)c1` (stereo not given): 880 nM. For the molecule `Cc1cc(CN2CCC(Nc3ncc(-c4ccsc4)c4nc(C(F)(F)F)ccc34)CC2)no1`, the IC50 amounted to 1100 nM.

Take `CC1=C(C(=O)Nc2cc3cn[nH]c3cc2F)C(c2ccc(Cl)c(NS(C)(=O)=O)c2)CC(=O)N1` (stereo not given): the IC50 was determined as 480 nM. As for `CCCCN1CCN(c2cc(NS(=O)(=O)c3ccc(C(=O)Nc4ccc(C(F)(F)F)cc4)cc3)ccc2OC)CC1`, the half-inhibitory concentration (IC50) came to 660 nM.

Regarding `CCOC(=O)c1cn(CC)c2cc(N(C)CCc3ccc(OC)c(OC)c3)c(F)cc2c1=O`, the IC50 turned out to be 430 nM.

Regarding `COc1ccc(-c2ccc(NC(=O)c3ccc(C#N)cc3)cc2)cc1CN1CCNCC1`, the IC50 worked out at 510 nM.

In turn, `Fc1ccc(Nc2ccnc3cc(I)ccc23)c(Cl)c1` registered an IC50 of 1080 nM. To `COc1ccc2nccc([C@@H](O)CN3CCC(NC(=O)/C=C/c4ccnc5ccccc45)CC3)c2c1` belongs 940 nM.

For the molecule `COc1ccc(NC(=O)[C@H](C)Nc2cc(C)nc(NCC3CCCCC3)n2)cc1`, the IC50 came to 1280 nM. In turn, `CC(C)C[C@@H](C(=O)Nc1ccc(Cc2ccc(NC(=O)[C@H](CC(C)C)N(C)C(=O)OC(C)(C)C)cc2)cc1)N(C)C(=O)OC(C)(C)C` yielded an IC50 of 820 nM. To `COc1ccc(C2CC(c3cccs3)=NN2C(=O)CNc2cccc(C#N)c2)cc1OC` (stereo not given) belongs 1450 nM; to `CCNc1cc(C(=O)N[C@@H](Cc2ccccc2Cl)[C@H](O)CNC(C)CCCC(C)C)cc(N2CCCCS2(=O)=O)c1` (stereo not given in full), 930 nM; to `CCN1CCc2nc3ccccc3c(C(=O)Nc3ccc(C#N)cc3)c2C1`, 780 nM. Next, `Cc1cc(N2CCCC2)nc(/N=C(\N)Nc2cccc(C(F)(F)F)c2)n1`: 320 nM; `O=C(NCCCNc1ccnc2cc(Cl)ccc12)c1ccccc1F`: 320 nM; `CCNc1cc(C(=O)N[C@@H](Cc2ccccc2)[C@H](O)CNC2(CC)CCCCC2)cc(N2CCCCS2(=O)=O)c1`: 270 nM. Next, `CCCC1(NC[C@@H](O)[C@H](Cc2ccccc2)NC(=O)c2cc(NCC)cc(N3CCCCS3(=O)=O)c2)CCC1`: 720 nM; `c1ccc2cc3c(NCCN4CCOCC4)ccnc3cc2c1`: 170 nM. Consider `CNCCNCc1ccc(-c2ccc(-c3nc4ccc(F)cc4[nH]3)cc2)cc1`, for which the IC50 was determined as 390 nM. To `CCCCCCN1CCN(Cc2cccc(NC(=O)c3cccc(OCC)c3)c2)CC1` belongs 1110 nM; to `CC[C@@]1(O)C(=O)OCc2c1cc1n(c2=O)Cc2c-1nc1cc3c(cc1c2CN1CCOCC1)OCO3`, 960 nM; to `CC(=O)c1c[nH]c(C(=O)Nc2ccc(-c3cn4ccccc4n3)cc2)c1`, 890 nM. To `COc1cccc(C(C)(C)NC[C@@H](O)[C@H](Cc2ccccc2)NC(=O)c2cc(C3CCCC3)cc(N3CCCCS3(=O)=O)c2F)c1` belongs 30 nM; to `O=S(=O)(c1ccc(OC(F)(F)F)cc1)C1C[C@H]2CC[C@@H](C1)N2S(=O)(=O)c1ccc(Cl)c(C(F)(F)F)c1` (stereo not given in full), 560 nM; to `CS(=O)(=O)N1CC2(CCN(CCC(NC(=O)/C=C/c3ccccc3)c3ccc(Cl)c(Cl)c3)CC2)c2ccccc21` (stereo not given), 780 nM.

The molecule `Cc1[nH]c(C)c(-c2ccc(S(=O)(=O)c3ccc(Cl)cc3)cc2)c(=O)c1Cl` gave an IC50 of 140 nM. `COc1ccc(-c2nc(NC(=O)Cc3cccc(OC)c3)sc2C)cc1` gave an IC50 of 240 nM. Molecule `CCCC[C@@H](C(=O)NCc1ccccc1C(F)(F)F)N1C(=O)CCC1C(=O)Nc1ccc([N+](=O)[O-])cc1` (stereo not given in full) yielded an IC50 of 850 nM. For `O=C(Nc1ccc(OC2CCN(Cc3ccsc3)C2)c(Cl)c1)c1ccco1` (stereo not given), the IC50 worked out at 600 nM. For `COc1ccc(NC(=O)CCNc2cc(C)nc(NCCc3ccccc3)n2)cc1`, the IC50 was 1160 nM. Next, `CCOc1ccc(C=CC(=O)Nc2ccc3nc(N4CCN(C)CC4)cc(C)c3c2)cc1OC`: 400 nM.

Turning to `N#Cc1ccc(-c2ccc(C(=O)NCCCCN3CCC(n4cnc5ccccc54)CC3)cc2)cc1`, the IC50 was 910 nM. On to `CCOC(=O)CCc1cc(F)c(F)c(OC[C@H](O)CNC(C)(C)C(O)c2ccc3ccccc3c2)c1` (stereo not given in full), for which the IC50 amounted to 860 nM. In the case of `CN(C)CCN(Cc1ccc(-c2ccc(CNCCc3ccccc3)cc2)nc1)C(=O)CCC1CCCC1`, the IC50 stood at 800 nM.

In the case of `CS(=O)(=O)CCNCc1nc(-c2ccc3c(Nc4ccc(F)c(O)c4)ccnc3c2)cs1`, the IC50 was determined as 820 nM. In turn, `COc1cc(Cl)c(C)cc1-n1cc(C(=O)c2cc(Br)ccc2O)cc(C#N)c1=O` yielded an IC50 of 870 nM. To `C=CCN(C(=O)c1ccc(Cl)c([N+](=O)[O-])c1)c1nc(-c2ccccc2)cs1` belongs 400 nM; to `COc1ccc(C(=O)CCC(=O)N(Cc2ccc(-c3ccc(CNCCc4ccccc4)cn3)cc2)C(C)CN(C)C)cc1F` (stereo not given), 750 nM. Take `O=C(Nc1ccccc1Cl)NC1CCC(CN2CCC(c3c[nH]c4ccccc34)CC2)CC1` (stereo not given): the IC50 is 800 nM and 750 nM. To `N=c1n(CCN2CCCCC2)c2ccccc2n1CC(O)c1ccc(Cl)c(Cl)c1` (stereo not given) belongs 320 nM; to `CN1CCN(CCCN(Cc2csc(-c3ccc(CNCc4ccccc4)cc3)n2)S(=O)(=O)c2cccc3cccnc23)CC1`, 1410 nM. Next, `COc1cc(C=CC(=O)NC2CCC(CN3CCC(c4c[nH]c5ccccc45)CC3)CC2)cc(OC)c1` (stereo not given): 810 nM; `COc1ccc2nccc([C@@H](O)CN3CCC(NC(=O)c4ccc(-c5ccc(C#N)cc5)cc4)CC3)c2c1`: 160 nM; `COc1cc2c(c(Cl)c1OC)CCN(C(=O)C(F)(F)F)CC2c1ccccc1` (stereo not given): 440 nM. Consider `N#Cc1ccc2[nH]cc(C(=O)CCCCCN(Cc3ccccc3)Cc3ccccc3)c2c1`, for which the IC50 was 790 nM. For the molecule `COc1ccc(C(=O)N[C@@H](CC(C)C)C(=O)N[C@H](/C=N/NC(=O)c2ccccc2)CCc2ccccc2)cc1OCCN1CCOCC1`, the 50% inhibitory concentration (IC50) was determined as 170 nM.

For the molecule `CCOc1ccc(/C=C/C(=O)Nc2cccc3c2CCN(C)C3)cc1`, the IC50 turned out to be 1110 nM. As for `N#Cc1ccc(-c2ccc(C(=O)Nc3ccc4c(c3)CCN(C3CCC3)CC4)nc2)cc1`, the IC50 was 700 nM. `COCCNCc1ncsc1-c1ccc2c(Nc3cc(O)c(Cl)cc3F)ccnc2c1` came in with an IC50 of 550 nM.

Molecule `COc1cc(Cc2cnc(N)nc2N)cc(OCc2cccc(C(=O)O)c2)c1OC` registered an IC50 of 830 nM. For `COc1cc(Nc2nccc(N3CCC(NC(=O)c4cc5ccccc5s4)C3)n2)cc(OC)c1OC` (stereo not given), the IC50 was determined as 790 nM.
